According to patent US8431747B2, “Process for the preparation of monomers for polybenzimidazole materials” (E I du Pont de Nemours and Company, priority 2008, dated 2013):
Counter-ions that a name gives are not always drawn.

Assay: solubility of TAT salt in water
Assay type: physicochemical
Details: 25° C.
Procedure: The reaction mixture containing the precipitated TAT salt is then cooled to about 5° C. to about 15° C. and stirred, then filtered. The TAT salt is then washed 44. It may be washed with deaerated aqueous acid, such as HCl (33%), and then optionally with deaerated ethanol or methanol to produce a wet cake material. The used acid can then be distilled and recycled (31, 30, 33). […] Using an agitated filter unit during the wash procedures can allow for a reduction of the wash volumes. Under such circumstances, using small amounts of cold (e.g., about 5° C.) water instead of the aqueous acid would be effective; cold water would be used because of lower solubility of the TAT salt in cold water versus, e.g., room temperature. For example, the solubility of TAT.4HCl in water at 25° C. is about 16 wt %.

solubility in water: about 16 wt %
SMILES: Cc1c(N)c(N)cc(N)c1N [TAT.4HCl, 2,3,5,6-tetraaminotoluene salt]
